Data published in patent US20220225616A1, “Antifungal Wallboards” (LANXESS Deutschland GmbH, priority 2019, published 2022).
“Also recorded” adds a separate entry of the source.

How the values were obtained:
[1] = test system: Fungi Mix: standard ASTM G 21-09 species extended by Fusarium solani and Aspergillus hiratsukae; assay: Gypsum board hand sheet efficacy testing (core protection), ASTM G 21-09; details: for Fungal growth rating, Fungi Mix: in gypsum core, 4 weeks at 28-30° C.; for Overall efficacy in gypsum board test, in words: tested concentration range 25-300 ppm, interpretation of tables 2 and 3
Text: (§1) For examination of the antifungal performance of the TBZ/BBIT combinations testing directly in gypsum boards provides realistic and practically relevant data for evaluation. […] For this purpose, a typical slurry recipe as given below for board production is used. Gypsum Board recipe:
(§2) The slurry is formed by mixing the dry components and the wet components together. The slurry is then mixed to achieve a homogeneous consistency. The fungicides are incorporated during preparation of the gypsum slurry by adding and mixing the fungicidal mixtures. For sandwiching the gypsum core, untreated cardboard (without fungicide) with a grammage of appr. 180 g/m^2 was used and after assembly of the plate the hand sheets are dried. The following antifungal compounds and respective formulations were used: • Thiabendazole • Butylbenzthiazole
(§3) For efficacy testing a test method of ASTM G 21 of 2009 was applied. As only change additional to the fungi mix as required by ASTM G 21-09, Fusarium solani and Aspergillus hiratsukae were included as further components of the mixed inoculum. According to this method, the manufactured gypsum boards as described above and after having been cut to an adequate size are placed on an agarplate and superficially are spoiled with fungal spores for a determined period of time of at the most 4 weeks. The respective total amount of actives in ppm based in gypsum/plaster (CaSO4(0.5 H2O) can be seen in the table.
(§4) Spore suspensions are produced for each fungi (spore concentrations of approximately 10^6/ml). Organisms which are included in ASTM G 21 comprise Aspergillus niger (ATCC 9642), Aureobasidium pullulans (ATCC 15233) Chaetomium globosum (ATCC 6205), Gliocladium virens (ATCC 6459) and Penicillium pinophilium (ATCC 11797) (as pure culture but also as mixed inoculum), however any other fungi species known to be able to grow in gypsum boards may be used in addition or instead. Mineral agar (according to ASTM G21 of 2009) was used as growth media in the agar plates. Before inoculation the gypsum board hand sheets are cut into pieces of appr. 5×5 cm.
(§5) For every concentration level, 3 test pieces are used in the test. Each sample is placed in a separate petri dish and then inoculated with the fungi. The samples are then incubated at 28-30° C. for 28 days. Pre-reading of the samples may be performed at approximately 10 days after inoculation. The activity of the treatments may be assessed visually, using a rating system of 0-4 for growth inhibition of fungal growth.
(§6) The reported results are recorded after 4 weeks testing at 28-30° C. according to the requirements of test method ASTM G 21 can be seen from Table 2: […]

Stachybotris chartarum = assay: as above; details: in gypsum core, 4 weeks at 28-30° C.
Text: as §1, §2, §3, §4, §5, §6

[2] = 25 ppm total actives based on gypsum/plaster
[3] = 50 ppm total actives based on gypsum/plaster
[4] = 100 ppm total actives based on gypsum/plaster
[5] = 200 ppm total actives based on gypsum/plaster
[6] = 300 ppm total actives based on gypsum/plaster

Row | Compound | Fungal growth rating, Fungi Mix [1, 2] | Fungal growth rating, Fungi Mix [1, 3] | Fungal growth rating, Fungi Mix [1, 4] | Fungal growth rating, Fungi Mix [1, 5] | Fungal growth rating, Fungi Mix [1, 6] | Overall efficacy in gypsum board test, in words [1] | Fungal growth rating, Stachybotris (Stachybotris chartarum; [2]) | Fungal growth rating, Stachybotris (Stachybotris chartarum; [3]) | Fungal growth rating, Stachybotris (Stachybotris chartarum; [4]) | Fungal growth rating, Stachybotris (Stachybotris chartarum; [5]) | Fungal growth rating, Stachybotris (Stachybotris chartarum; [6])
1 | CO/C=C(/C(=O)OC)c1ccccc1Oc1cc(Oc2ccccc2C#N)ncn1 [AZO, Azoxystrobin] | 4 (Heavy growth (60% to complete coverage)) | 4 (Heavy growth (60% to complete coverage)) | 4 (Heavy growth (60% to complete coverage)) | 4 (Heavy growth (60% to complete coverage)) | 4 (Heavy growth (60% to complete coverage)) | neither TBZ nor AZO alone are good enough to pass the ASTM G 21 test | 4 (Heavy growth (60% to complete coverage)) | 4 (Heavy growth (60% to complete coverage)) | 4 (Heavy growth (60% to complete coverage)) | 4 (Heavy growth (60% to complete coverage)) | 4 (Heavy growth (60% to complete coverage))
2 | CCCCn1sc2ccccc2c1=O [BBIT, 2-butyl-1,2-benzisothiazolin-3-one] | 4 (Heavy growth (60% to complete coverage)) | 4 (Heavy growth (60% to complete coverage)) | 4 (Heavy growth (60% to complete coverage)) | 2 (Light growth (10 to 30%)) | 1 (Traces of growth (less than 10%)) | better than TBZ, however still not fully satisfactory | 4 (Heavy growth (60% to complete coverage)) | 4 (Heavy growth (60% to complete coverage)) | 4 (Heavy growth (60% to complete coverage)) | 2 (Light growth (10 to 30%)) | 1 (Traces of growth (less than 10%))
3 | c1ccc2[nH]c(-c3cscn3)nc2c1 [TBZ, thiabendazole] | 4 (Heavy growth (60% to complete coverage)) | 4 (Heavy growth (60% to complete coverage)) | 4 (Heavy growth (60% to complete coverage)) | 4 (Heavy growth (60% to complete coverage)) | 3 (Medium growth (30 to 60%)) | not good enough for control of fungi growth; also recorded: neither TBZ nor AZO alone are good enough to pass the ASTM G 21 test | 4 (Heavy growth (60% to complete coverage)) | 4 (Heavy growth (60% to complete coverage)) | 4 (Heavy growth (60% to complete coverage)) | 4 (Heavy growth (60% to complete coverage)) | 3 (Medium growth (30 to 60%))
